Measured values as given in BindingDB's records for doi:10.1016/j.bmcl.2006.03.041 (Abbott Laboratories, 2006).

Biological target: T1, Protein kinase C zeta type (Homo sapiens, UniProt Q05513)
T1 sequence (Q05513 whole entry): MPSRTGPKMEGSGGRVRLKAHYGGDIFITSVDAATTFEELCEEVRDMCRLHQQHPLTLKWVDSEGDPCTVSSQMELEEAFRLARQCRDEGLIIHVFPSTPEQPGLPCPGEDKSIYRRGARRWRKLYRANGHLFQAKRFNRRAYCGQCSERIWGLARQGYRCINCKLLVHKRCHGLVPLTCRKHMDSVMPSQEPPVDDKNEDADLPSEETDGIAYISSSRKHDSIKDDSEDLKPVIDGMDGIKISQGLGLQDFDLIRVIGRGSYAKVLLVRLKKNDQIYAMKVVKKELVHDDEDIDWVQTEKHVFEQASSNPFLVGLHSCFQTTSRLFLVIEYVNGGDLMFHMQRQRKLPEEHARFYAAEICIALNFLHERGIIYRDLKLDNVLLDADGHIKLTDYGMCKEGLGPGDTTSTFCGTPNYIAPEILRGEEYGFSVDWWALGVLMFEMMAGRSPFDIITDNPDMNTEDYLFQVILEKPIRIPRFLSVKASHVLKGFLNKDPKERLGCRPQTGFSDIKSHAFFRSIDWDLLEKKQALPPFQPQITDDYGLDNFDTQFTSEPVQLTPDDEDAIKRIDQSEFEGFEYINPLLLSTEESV
Test: PKA/PKC Kinase Assay
Conditions: pH 7.5; 22 °C
Experimental: The kinase assay uses purified recombinant enzyme and a biotinylated peptide as substrate. The biotinylated peptides were immobilized on streptavidin-coated FLASH plates. After reaction, the 33P-phosphopeptide captured on the FLASH plates was measured with a TopCount Packard Instruments gamma counter (Packard Instruments, Boston, MA). IC50s were calculated using the sigmoidal curve fit with the Assay Explorer software (MDL, Los Angeles, CA).

Row | SMILES | IC50 [nM]
1 | N[C@H](COc1cnc(Cl)c(-c2ccc3cnccc3c2)c1)Cc1c[nH]c2ccccc12 [6-{5-[(2S)-2-amino-3-(1H-indol-3-yl)propoxy]-2-chloropyridin-3-yl}isoquinoline] | > 5000

Biological target: T2, RAC-alpha serine/threonine-protein kinase [139-480,S378A,S381A,T450D,S473D] (Homo sapiens, UniProt P31749, S378A/S381A/S473D/T450D)
T2 construct: 139-480
T2 sequence (P31749 139-480 S378A/S381A/T450D/S473D): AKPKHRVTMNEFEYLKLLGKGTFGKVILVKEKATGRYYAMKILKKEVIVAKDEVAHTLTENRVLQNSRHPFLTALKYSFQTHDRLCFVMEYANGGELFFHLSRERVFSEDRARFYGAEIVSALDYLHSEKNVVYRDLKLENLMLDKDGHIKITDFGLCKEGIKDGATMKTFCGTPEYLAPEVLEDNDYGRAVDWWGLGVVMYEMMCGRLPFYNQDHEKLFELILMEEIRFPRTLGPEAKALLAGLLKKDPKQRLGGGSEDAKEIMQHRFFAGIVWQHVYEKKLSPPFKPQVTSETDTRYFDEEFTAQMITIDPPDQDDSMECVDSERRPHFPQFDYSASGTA
Test: Akt Kinase Assay
Conditions: not given
Experimental: The kinase assay uses His-Akt1 and a biotinylated peptide as substrate. The biotinylated peptides were immobilized on streptavidin-coated FLASH plates. After reaction, the 33P-phosphopeptide captured on the FLASH plates was measured with a TopCount Packard Instruments […] (Packard Instruments, Boston, MA).

Row | SMILES | IC50 [nM]
2 | Cc1cc(-c2cncc(OC[C@@H](N)Cc3c[nH]c4ccccc34)c2)cc2ccncc12 [6-{5-[(2S)-2-amino-3-(1H-indol-3-yl)propoxy]pyridin-3-yl}-8-methylisoquinoline] | 995
3 | N#Cc1cc2cc(-c3cncc(OC[C@@H](N)Cc4c[nH]c5ccccc45)c3)ccc2cn1 [6-{5-[(2S)-2-amino-3-(1H-indol-3-yl)propoxy]pyridin-3-yl}isoquinoline-3-carbonitrile] | 640
4 | N[C@H](COc1cncc(-c2ccc3cnc(-c4ccccc4)cc3c2)c1)Cc1c[nH]c2ccccc12 [6-{5-[(2S)-2-amino-3-(1H-indol-3-yl)propoxy]pyridin-3-yl}-3-phenylisoquinoline] | 305
5 | N[C@H](COc1cncc(-c2ccc3cnc(Cl)cc3c2)c1)Cc1c[nH]c2ccccc12 [6-{5-[(2S)-2-amino-3-(1H-indol-3-yl)propoxy]pyridin-3-yl}-3-chloroisoquinoline] | 407
6 | CC#Cc1cc2cc(-c3cncc(OC[C@@H](N)Cc4c[nH]c5ccccc45)c3)ccc2cn1 [6-{5-[(2S)-2-amino-3-(1H-indol-3-yl)propoxy]pyridin-3-yl}-3-(prop-1-yn-1-yl)isoquinoline] | 180
7 | Nc1c(-c2cncc(OC[C@@H](N)Cc3c[nH]c4ccccc34)c2)ccc2cnccc12 [6-{5-[(2S)-2-amino-3-(1H-indol-3-yl)propoxy]pyridin-3-yl}isoquinolin-5-amine] | 15
8 | N[C@H](COc1cncc(-c2ccc3cnc(C#Cc4ccccc4)cc3c2)c1)Cc1c[nH]c2ccccc12 [6-{5-[(2S)-2-amino-3-(1H-indol-3-yl)propoxy]pyridin-3-yl}-3-(2-phenylethynyl)isoquinoline] | 56
9 | CCc1cc2cc(-c3cncc(OC[C@@H](N)Cc4c[nH]c5ccccc45)c3)ccc2cn1 [6-{5-[(2S)-2-amino-3-(1H-indol-3-yl)propoxy]pyridin-3-yl}-3-ethylisoquinoline] | 144
10 | Nc1cc2cc(-c3cncc(OC[C@@H](N)Cc4c[nH]c5ccccc45)c3)ccc2cn1 [6-{5-[(2S)-2-amino-3-(1H-indol-3-yl)propoxy]pyridin-3-yl}isoquinolin-3-amine] | 3.4
11 | N[C@H](COc1cncc(-c2ccc3cnc(-c4ccco4)cc3c2)c1)Cc1c[nH]c2ccccc12 [6-{5-[(2S)-2-amino-3-(1H-indol-3-yl)propoxy]pyridin-3-yl}-3-(furan-2-yl)isoquinoline] | 57
12 | N[C@H](COc1cncc(-c2ccc3cnc(F)cc3c2)c1)Cc1c[nH]c2ccccc12 [6-{5-[(2S)-2-amino-3-(1H-indol-3-yl)propoxy]pyridin-3-yl}-3-fluoroisoquinoline] | 3.5
13 | C=Cc1cc2cc(-c3cncc(OC[C@@H](N)Cc4c[nH]c5ccccc45)c3)ccc2cn1 [6-{5-[(2S)-2-amino-3-(1H-indol-3-yl)propoxy]pyridin-3-yl}-3-ethenylisoquinoline] | 22
14 | N[C@H](COc1cncc(-c2ccc3cnc(-c4ccncc4)cc3c2)c1)Cc1c[nH]c2ccccc12 [6-{5-[(2S)-2-amino-3-(1H-indol-3-yl)propoxy]pyridin-3-yl}-3-(pyridin-4-yl)isoquinoline] | 122

Same assay, conditions: pH 7.5; 22 °C

Row | SMILES | IC50 [nM]
15 | N#Cc1ncc(OC[C@@H](N)Cc2c[nH]c3ccccc23)cc1-c1ccc2cnccc2c1 [5-[(2S)-2-amino-3-(1H-indol-3-yl)propoxy]-3-(isoquinolin-6-yl)pyridine-2-carbonitrile] | 4.6
16 | N[C@H](COc1cnc(C#Cc2ccccc2)c(-c2ccc3cnccc3c2)c1)Cc1c[nH]c2ccccc12 [6-{5-[(2S)-2-amino-3-(1H-indol-3-yl)propoxy]-2-(2-phenylethynyl)pyridin-3-yl}isoquinoline] | 1240
17 | COc1nccc2cc(-c3cncc(OC[C@@H](N)Cc4c[nH]c5ccccc45)c3)ccc12 [6-{5-[(2S)-2-amino-3-(1H-indol-3-yl)propoxy]pyridin-3-yl}-1-methoxyisoquinoline] | 39500
18 | Cc1c(OC[C@@H](N)Cc2c[nH]c3ccccc23)cncc1-c1ccc2cnccc2c1 [6-{5-[(2S)-2-amino-3-(1H-indol-3-yl)propoxy]-4-methylpyridin-3-yl}isoquinoline] | 84
19 | Nc1nccc2cc(-c3cncc(OC[C@@H](N)Cc4c[nH]c5ccccc45)c3)ccc12 [6-{5-[(2S)-2-amino-3-(1H-indol-3-yl)propoxy]pyridin-3-yl}isoquinolin-1-amine] | 160
20 | N[C@H](COc1cncc(-c2ccc3c(F)nccc3c2)c1)Cc1c[nH]c2ccccc12 [6-{5-[(2S)-2-amino-3-(1H-indol-3-yl)propoxy]pyridin-3-yl}-1-fluoroisoquinoline] | 227
21 | C=Cc1ncc(OC[C@@H](N)Cc2c[nH]c3ccccc23)cc1-c1ccc2cnccc2c1 [6-{5-[(2S)-2-amino-3-(1H-indol-3-yl)propoxy]-2-ethenylpyridin-3-yl}isoquinoline] | 2
22 | N[C@H](COc1cncc(-c2ccc3cnccc3c2)c1)Cc1c[nH]c2ccccc12 [13a (S-)] | 2
23 | C#Cc1ncc(OC[C@@H](N)Cc2c[nH]c3ccccc23)cc1-c1ccc2cnccc2c1 [6-{5-[(2S)-2-amino-3-(1H-indol-3-yl)propoxy]-2-ethynylpyridin-3-yl}isoquinoline] | 0.8
24 | N[C@H](COc1cnc(-c2ccco2)c(-c2ccc3cnccc3c2)c1)Cc1c[nH]c2ccccc12 [6-{5-[(2S)-2-amino-3-(1H-indol-3-yl)propoxy]-2-(furan-2-yl)pyridin-3-yl}isoquinoline] | 1.5
25 | N[C@H](COc1cncc(-c2ccc3c(Cl)nccc3c2)c1)Cc1c[nH]c2ccccc12 [6-{5-[(2S)-2-amino-3-(1H-indol-3-yl)propoxy]pyridin-3-yl}-1-chloroisoquinoline] | 778
26 | N[C@H](COc1cc(-c2ccc3cnccc3c2)cnc1Cl)Cc1c[nH]c2ccccc12 [6-{5-[(2S)-2-amino-3-(1H-indol-3-yl)propoxy]-6-chloropyridin-3-yl}isoquinoline] | 12
27 | N[C@H](COc1cncc(-c2ccc3c(=O)[nH]ccc3c2)c1)Cc1c[nH]c2ccccc12 [6-{5-[(2S)-2-amino-3-(1H-indol-3-yl)propoxy]pyridin-3-yl}isoquinolin-1-ol] | 1240
28 | N#C/C=C/c1c(OC[C@@H](N)Cc2c[nH]c3ccccc23)cncc1-c1ccc2cnccc2c1 [(2E)-3-{3-[(2S)-2-amino-3-(1H-indol-3-yl)propoxy]-5-(isoquinolin-6-yl)pyridin-4-yl}prop-2-enenitrile] | 697
29 | N[C@H](COc1cnc(Cl)c(-c2ccc3cnccc3c2)c1)Cc1c[nH]c2ccccc12 [6-{5-[(2S)-2-amino-3-(1H-indol-3-yl)propoxy]-2-chloropyridin-3-yl}isoquinoline] | 1.8
